# US12404301B2, “Polypeptide having anti-aging activity, and application thereof” (NANJING ANJI BIOLOGICAL TECHNOLOGY CO., LTD., priority 2020, dated 2025)
# Tested on: Wild-type Caenorhabditis elegans
# Experiment: Experiment on the lifespan of Caenorhabditis elegans
# Type: in vivo
# Conditions: for longest lifespan of the nematodes / Median survival time (time to half death) / day when death occurs compared with the control group / time to half death compared with the control group (significance) / longest lifespan, days longer than that of the control group / time to half death longer than in the control group: 10 nM; for Median survival time (time to half death): Kaplan-Meier, Median ± SE; for day when death occurs compared with the control group / time to half death compared with the control group (significance): in words; for longest lifespan, days longer than that of the control group / time to half death longer than in the control group: vs control group
# Description: Synchronization of Caenorhabditis elegans: The NGM plate with a moderate nematode density was selected. The larvae at the L4 stage were picked with a pick needle for about 20 in total and transferred into the blank NGM plate. After they developed into adults and laid the first batch of eggs, all the adults were picked out. About 12 hours later, the eggs hatched into larvae, to obtain the synchronized larvae at the L1 stage. Preliminary preparation for the experiment on the lifespan of Caenorhabditis elegans: The NGM was washed with 1 mL of M9 buffer. The resulting buffer containing the larvae at the L1 stage was collected into an EP tube, placed in a chromatographic cabinet at 4° C. for 5 min, and centrifuged at 1500× g/4° C. for 3 min. The supernatant was removed. After 100 μL of buffer was resuspended, the nematodes were counted under a microscope, and the nematodes were diluted to a concentration of 30 worms/10 μL. 10 μL of diluted nematodes were added into the NGM plate inoculated with E. coli OP50, and the nematodes were counted under the microscope to ensure that there were about 30 nematodes. The NGM plate was placed in a constant temperature incubator to culture. Experiment on the lifespan of Caenorhabditis elegans: After the nematodes at the L1 stage developed to the L4 stage, 100 μL of 15.6 μg/mL 5-FUDR was added for inhibition of Caenorhabditis elegans from oviposition. After the nematodes developed to adults, the dosing started, and the nematodes were divided into a control group and a 10 nM dose group, which was recorded as day 1 of the lifespan experiment. After that, the dosing was carried out every day, the numbers of nematodes that survived, died, and unexpectedly died were observed and recorded every day, and the status of the nematodes was observed and recorded, until the last nematode died. […] The dead nematodes need to be picked out of the plate. The E. coli OP50 needs to be added in time when exhausted. Kaplan-Meier statistical analysis was carried out on the data, and the data results were expressed as Median±SE. Compared with the control group, *P<0.05 represents a significant difference, and **P<0.01 represents a very significant difference.
substance,measurement,setting,value
TTKFAA [WD3],longest lifespan of the nematodes,,33 days
same,Median survival time (time to half death),,21.000 days
same,day when death occurs compared with the control group,,no significant difference
same,time to half death compared with the control group (significance),,does not have a significant difference
same,"longest lifespan, days longer than that of the control group",,5 days
same,time to half death longer than in the control group,,1 days
same,Number of remaining nematodes,"day 0, 10 nM",28
same,Number of remaining nematodes,"day 1, 10 nM",28
same,Number of remaining nematodes,"day 2, 10 nM",28
same,Number of remaining nematodes,"day 3, 10 nM",28
same,Number of remaining nematodes,"day 4, 10 nM",28
same,Number of remaining nematodes,"day 5, 10 nM",28
same,Number of remaining nematodes,"day 6, 10 nM",28
same,Number of remaining nematodes,"day 7, 10 nM",28
same,Number of remaining nematodes,"day 8, 10 nM",28
same,Number of remaining nematodes,"day 9, 10 nM",28
same,Number of remaining nematodes,"day 10, 10 nM",28
same,Number of remaining nematodes,"day 11, 10 nM",27
same,Number of remaining nematodes,"day 12, 10 nM",27
same,Number of remaining nematodes,"day 13, 10 nM",27
same,Number of remaining nematodes,"day 14, 10 nM",22
same,Number of remaining nematodes,"day 15, 10 nM",20
same,Number of remaining nematodes,"day 16, 10 nM",20
same,Number of remaining nematodes,"day 17, 10 nM",20
same,Number of remaining nematodes,"day 18, 10 nM",20
same,Number of remaining nematodes,"day 19, 10 nM",17
same,Number of remaining nematodes,"day 20, 10 nM",15
same,Number of remaining nematodes,"day 21, 10 nM",14
same,Number of remaining nematodes,"day 22, 10 nM",11
same,Number of remaining nematodes,"day 23, 10 nM",10
same,Number of remaining nematodes,"day 24, 10 nM",9
same,Number of remaining nematodes,"day 25, 10 nM",6
same,Number of remaining nematodes,"day 26, 10 nM",6
same,Number of remaining nematodes,"day 27, 10 nM",5
same,Number of remaining nematodes,"day 28, 10 nM",4
same,Number of remaining nematodes,"day 29, 10 nM",2
same,Number of remaining nematodes,"day 30, 10 nM",1
same,Number of remaining nematodes,"day 31, 10 nM",1
same,Number of remaining nematodes,"day 32, 10 nM",1
same,Number of remaining nematodes,"day 33, 10 nM",1
same,Number of remaining nematodes,"day 34, 10 nM",0
same,Number of remaining nematodes,"day 35, 10 nM",0
same,Number of remaining nematodes,"day 36, 10 nM",0
same,Number of remaining nematodes,"day 37, 10 nM",0
same,Number of remaining nematodes,"day 38, 10 nM",0
PTTKFAA [WD2],longest lifespan of the nematodes,,32 days
same,Median survival time (time to half death),,21.000 days
same,day when death occurs compared with the control group,,no significant difference
same,time to half death compared with the control group (significance),,does not have a significant difference
same,"longest lifespan, days longer than that of the control group",,4 days
same,time to half death longer than in the control group,,1 days
same,Number of remaining nematodes,"day 0, 10 nM",26
same,Number of remaining nematodes,"day 1, 10 nM",26
same,Number of remaining nematodes,"day 2, 10 nM",26
same,Number of remaining nematodes,"day 3, 10 nM",26
same,Number of remaining nematodes,"day 4, 10 nM",26
same,Number of remaining nematodes,"day 5, 10 nM",26
same,Number of remaining nematodes,"day 6, 10 nM",26
same,Number of remaining nematodes,"day 7, 10 nM",26
same,Number of remaining nematodes,"day 8, 10 nM",26
same,Number of remaining nematodes,"day 9, 10 nM",26
same,Number of remaining nematodes,"day 10, 10 nM",26
same,Number of remaining nematodes,"day 11, 10 nM",25
same,Number of remaining nematodes,"day 12, 10 nM",23
same,Number of remaining nematodes,"day 13, 10 nM",23
same,Number of remaining nematodes,"day 14, 10 nM",22
same,Number of remaining nematodes,"day 15, 10 nM",21
same,Number of remaining nematodes,"day 16, 10 nM",21
same,Number of remaining nematodes,"day 17, 10 nM",20
same,Number of remaining nematodes,"day 18, 10 nM",18
same,Number of remaining nematodes,"day 19, 10 nM",16
same,Number of remaining nematodes,"day 20, 10 nM",14
same,Number of remaining nematodes,"day 21, 10 nM",13
same,Number of remaining nematodes,"day 22, 10 nM",11
same,Number of remaining nematodes,"day 23, 10 nM",9
same,Number of remaining nematodes,"day 24, 10 nM",9
same,Number of remaining nematodes,"day 25, 10 nM",7
same,Number of remaining nematodes,"day 26, 10 nM",7
same,Number of remaining nematodes,"day 27, 10 nM",5
same,Number of remaining nematodes,"day 28, 10 nM",3
same,Number of remaining nematodes,"day 29, 10 nM",2
same,Number of remaining nematodes,"day 30, 10 nM",1
same,Number of remaining nematodes,"day 31, 10 nM",1
same,Number of remaining nematodes,"day 32, 10 nM",1
same,Number of remaining nematodes,"day 33, 10 nM",0
same,Number of remaining nematodes,"day 34, 10 nM",0
same,Number of remaining nematodes,"day 35, 10 nM",0
same,Number of remaining nematodes,"day 36, 10 nM",0
same,Number of remaining nematodes,"day 37, 10 nM",0
same,Number of remaining nematodes,"day 38, 10 nM",0
PPTTKFAA [WD1],longest lifespan of the nematodes,,31 days
same,Median survival time (time to half death),,21.000 days
same,day when death occurs compared with the control group,,no significant difference
same,time to half death compared with the control group (significance),,does not have a significant difference
same,"longest lifespan, days longer than that of the control group",,3 days
same,time to half death longer than in the control group,,1 days
same,Number of remaining nematodes,"day 0, 10 nM",29
same,Number of remaining nematodes,"day 1, 10 nM",29
same,Number of remaining nematodes,"day 2, 10 nM",29
same,Number of remaining nematodes,"day 3, 10 nM",29
same,Number of remaining nematodes,"day 4, 10 nM",29
same,Number of remaining nematodes,"day 5, 10 nM",29
same,Number of remaining nematodes,"day 6, 10 nM",29
same,Number of remaining nematodes,"day 7, 10 nM",29
same,Number of remaining nematodes,"day 8, 10 nM",29
same,Number of remaining nematodes,"day 9, 10 nM",29
same,Number of remaining nematodes,"day 10, 10 nM",28
same,Number of remaining nematodes,"day 11, 10 nM",27
same,Number of remaining nematodes,"day 12, 10 nM",24
same,Number of remaining nematodes,"day 13, 10 nM",24
same,Number of remaining nematodes,"day 14, 10 nM",22
same,Number of remaining nematodes,"day 15, 10 nM",20
same,Number of remaining nematodes,"day 16, 10 nM",20
same,Number of remaining nematodes,"day 17, 10 nM",19
same,Number of remaining nematodes,"day 18, 10 nM",19
same,Number of remaining nematodes,"day 19, 10 nM",16
same,Number of remaining nematodes,"day 20, 10 nM",15
same,Number of remaining nematodes,"day 21, 10 nM",14
same,Number of remaining nematodes,"day 22, 10 nM",12
same,Number of remaining nematodes,"day 23, 10 nM",10
same,Number of remaining nematodes,"day 24, 10 nM",9
same,Number of remaining nematodes,"day 25, 10 nM",8
same,Number of remaining nematodes,"day 26, 10 nM",6
same,Number of remaining nematodes,"day 27, 10 nM",5
same,Number of remaining nematodes,"day 28, 10 nM",4
same,Number of remaining nematodes,"day 29, 10 nM",1
same,Number of remaining nematodes,"day 30, 10 nM",1
same,Number of remaining nematodes,"day 31, 10 nM",1
same,Number of remaining nematodes,"day 32, 10 nM",0
same,Number of remaining nematodes,"day 33, 10 nM",0
same,Number of remaining nematodes,"day 34, 10 nM",0
same,Number of remaining nematodes,"day 35, 10 nM",0
same,Number of remaining nematodes,"day 36, 10 nM",0
same,Number of remaining nematodes,"day 37, 10 nM",0
same,Number of remaining nematodes,"day 38, 10 nM",0
